# Measurements taken from ChEMBL document CHEMBL6153120, “Identification of Structurally Novel KRASG12C Inhibitors through Covalent DNA-Encoded Library Screening” (J Med Chem, 2025).
# Key:
# GTPase KRas = GTPase KRas (Homo sapiens, UniProt P01116, C118A/G12C); test: Inhibition of recombinant His-tagged GDP-bound human KRAS G12C/C118A mutant (1 to 169 residues) (unknown origin) extracted by Escherichia coli assessed as SOS1-catalyzed GDP-GTP exchange preincubated for 2 hrs followed by SOS1 and GTP addition for 30 mins and measured after 45 mins of GST-tagged c-RAF addition by luminescence based Alphascreen assay
# [1] = Inhibition of ERK1/2 phosphorylation in human MIA PaCa-2 cells incubated for 2 hrs by MSD assay; type: cell-based; settings: MIA PaCa-2, 2 h
# MIA PaCa-2 = test: Antiproliferative activity against human MIA PaCa-2 cells assessed as reduction in cell viability incubated for 72 hrs by Cell Titer-Glo reagent based luminescent cell viability assay; type: functional; settings: MIA PaCa-2, 72 h
# [2] = Oral bioavailability in mouse; type: ADME, organism-based; settings: in vivo
# [3] = Unbound AUC in mouse at 5 mg/kg, po; type: ADME, organism-based; settings: in vivo
# [4] = Unbound AUC in mouse at 100 mg/kg, po; type: ADME, organism-based; settings: in vivo
# animal or person = settings: Mus musculus, MIA PaCa-2, po, 2 h, read-out: INH
# [5] = Clearance in mouse; type: ADME, organism-based; settings: in vivo
SMILES,IC50 (GTPase KRas) [nM],IC50 [1] [nM],IC50 (MIA PaCa-2) [nM],bioavailability [2] [%],fAUC [3] [µM·h],fAUC [4] [µM·h],inhibition in vivo at 100 mg/kg (animal or person) [%],clearance [5] [mL/min/kg]
C=CC(=O)N1CC2(CCN(c3nc4c(c(-c5cccc6sc(N)nc56)n3)CCCC4)C2)C1,890,8130,> 5000,–,–,–,–,–
C=CC(=O)N1CC2(CCN(c3nc4c(c(-c5c(C)ccc6[nH]ncc56)c3C#N)CCC(C)(C)C4)C2)C1 (atropisomer P),–,67,42,–,–,–,–,–
C=CC(=O)N1CC2(CCN(c3nc(N[C@H](CC(=O)NC)CC(C)C)nc(-c4cccc(OC)c4Cl)n3)CC2)C1,1750,8840,–,–,–,–,–,–
C=CC(=O)N1CC2(CCN(c3nc(N[C@H](CC(=O)NC)CC(C)C)c4ccccc4n3)C2)C1,–,6170,1290,–,–,–,–,–
C=CC(=O)N1CC2(CCN(c3nc4c(c(-c5cc(O)cc6ccccc56)c3F)C[C@H]3C[C@@H]4C3(C)C)C2)C1,–,–,–,14,0.021,1.01,55,–
C=CC(=O)N1CC2(CCN(c3nc4c(c(-c5c(C)ccc6[nH]ncc56)n3)CCC(C)(C)C4)C2)C1,840,6390,3350,–,–,–,–,–
C=CC(=O)N1CC2(CCN(c3nc(N[C@H](CC(=O)NC)CC(C)C)nc(-c4cccc(OC)c4OC)n3)C(C)C2)C1 (stereo not given in full),3200,6010,–,–,–,–,–,–
C=CC(=O)N1CC2(CCN(c3nc4c(c(-c5c(C)ccc6[nH]ncc56)c3C#N)C[C@H]3C[C@@H]4C3(C)C)C2)C1,19,10,11,–,–,–,–,–
C=CC(=O)N1CC2(CCN(c3nc4c(c(-c5cc(O)cc6ccccc56)n3)CCCC4)C2)C1,690,8480,> 5000,–,–,–,–,–
C=CC(=O)N1CC2(CCN(c3nc4c(c(-c5cc(O)cc6ccccc56)c3C#N)C[C@H]3C[C@@H]4C3(C)C)C2)C1,19,40,21,4,0.001,–,–,–
C=CC(=O)N1CC2(CCN(c3nc4c(c(-c5c(C)ccc6[nH]ncc56)n3)CCCC4)C2)C1,3830,8240,> 5000,–,–,–,–,–
C=CC(=O)N1CC2(CCN(c3nc4c(c(-c5c(C)ccc6[nH]ncc56)c3C#N)COC(C)(C)C4)C2)C1,64,158,96,3,0.003,–,–,90
C=CC(=O)N1CC2(CCN(c3nc4c(c(-c5cc(O)cc6ccccc56)c3Cl)COC(C)(C)C4)C2)C1,–,–,–,50,0.042,0.15,–,–
C=CC(=O)N1CC2(CCN(c3nc4c(c(-c5cc(O)cc6ccccc56)c3C#N)COC(C)(C)C4)C2)C1,22,101,143,34,0.013,–,–,–
C=CC(=O)N1CC2(CCN(c3nc4c(c(-c5cc(O)cc6ccccc56)c3C)COC(C)(C)C4)C2)C1,–,100,32,44,0.018,0.137,–,–
C=CC(=O)N1CC2(CCN(c3nc(N[C@H](CC(=O)NC)CC(C)C)nc(-c4cc(F)ccc4OC)n3)CC2(F)F)C1,300,950,720,–,–,–,–,–
C=CC(=O)N1CC2(CCN(c3nc4c(c(-c5cc(O)cc6ccccc56)c3F)COC(C)(C)C4)C2)C1,62,217,119,27,0.027,0.36,–,–
C=CC(=O)N1CC2(CCN(c3nc4c(c(N[C@H](CC(=O)NC)CC(C)C)n3)CCCC4)C2)C1,–,1590,890,–,–,–,–,–
C=CC(=O)N1CC2(CCN(c3nc(N[C@H](CC(=O)NC)CC(C)C)nc(-c4cccc(OC)c4F)n3)C2)C1,610,1230,720,–,–,–,–,–
